This is an account of results in patent publication US20080233621A1, “Method For Producing Alcohol and Carboxylic Acid Having Optical Activity” (API Corporation, priority 2004, published 2008).

Each structure is given as a SMILES string.

In the experiment the test system is carbonyl reductase IsADH1. Description: Substrate specificity of IsADH1: carbonyl reductase activity by NADPH consumption (absorbance at 340 nm). The format is biochemical, Issatchankia scutulata var. scutulata JCM1828 strain. Further details: key: —: Activity cannot be detected; Trace: a slight level of activity is detected. The following applies: purified carbonyl reductase, 2 mM substrate, 0.32 mM NADPH, 100 mM Tris-HCl (pH 7.5), 37° C.; activity to 1-acetoxy-3-chloro-2-propanone defined as 100. Here is the method: The Issatchankia scutulata var. scutulata JCM1828 strain was cultured in 2 L of a medium (80 g of glucose, 20 g of yeast extract (manufactured by Difco), and 40 g/L peptone (manufactured by Kyokuto Pharmaceutical Industrial Co., Ltd.)), and a cell mass was then prepared by centrifugation. 150 g of the obtained wet cell mass was suspended in 10 mM potassium phosphate buffer (pH 7) and 0.1 mM DTT (hereinafter simply referred to as a “buffer”), and it was then crushed with DYNO-MILL KDL (manufactured by Shimaru Enterprises Corp.). Thereafter, the cell mass residue was eliminated by centrifugation, so as to obtain a cell-free extract. Thereafter, PEG6000 was added to the cell-free extract to a concentration of 90 g/L, and the obtained mixture was then left at rest at 4° C. for 1 hour. Thereafter, the precipitate was eliminated by centrifugation. The obtained supernatant was then subjected to anion exchange chromatography using DEAE Sepharose Fast Flow (manufactured by Amersham Biosciences), hydrophobic interaction chromatography using Butyl Sepharose 4 Fast Flow (manufactured by Amersham Biosciences), anion exchange chromatography using MonoQ (manufactured by Amersham Biosciences), and Gel filtration chromatography using Superdex 200 (manufactured by Amersham Biosciences), so that carbonyl reductase of interest could be purified to a single band in electrophoresis.
During purification, the activity of carbonyl reductase was measured by reacting the reaction solution containing an enzyme solution (100 mM Tris-HCl (pH 7.5), 0.32 mM NADPH, and 2 mM 1-acetoxy-3-chloro-2-propanone) at 37° C. and then calculating the amount of NADPH consumed based on a decrease in the absorbance at 340 nm. For the measurement of the absorbance, SPECTRAmax 190 (manufactured by Molecular Devices) was used. It is to be noted that the activity necessary for consuming 1 nmol of NADPH for 1 minute in the aforementioned reaction was defined as 1 U.
With regard to various carbonyl compounds, a reaction solution (100 mM Tris-HCl (pH 7.5), 0.32 mM NADPH, and a 2 mM substrate) containing the carbonyl reductase solution purified in (2) above was prepared, and it was reacted at 37° C. The amount of NADPH consumed in the reaction solution was monitored based on the absorbance at 340 nm, so as to measure carbonyl reductase activity to each compound. For the measurement of the absorbance, SPECTRAmax 190 (manufactured by Molecular Devices) was used. The relative activity of carbonyl reductase to each substrate compound obtained when carbonyl reductase activity to 1-acetoxy-3-chloro-2-propanone was defined as 100 is shown in Table 4.
`CC(=O)OCC(=O)CCl` [1-acetoxy-3-chloro-2-propanone] yielded a Relative activity of 100. `O=C(c1ccccc1)C(F)(F)F` [2,2,2-trifluoroacetophenone] came in with a Relative activity of 53.8. In the case of `CCC(=O)C(C)=O` [2,3-pentadione], the Relative activity entry is reported as “Trace”. Consider `O=C1CC2CCC1C2` (centres unmarked) [2-norbornanone], for which the Relative activity result was “—”.

Regarding `CCC(=O)c1cccnc1` [3-propionylpyridine], the Relative activity is given as 11.2. For `O=C1CN2CCC1CC2` [3-quinuclidinone], the Relative activity entry is given as “Trace”.

On to `CC(=O)C(C)O` (centres unmarked) [Acetoin], for which the Relative activity result is “—”. For `CC(=O)c1ccccc1` [Acetophenone], the Relative activity result is recorded as “—”. With `CC(=O)C(C)=O` [Diacetyl] the entry was “—”; with `CCOC(=O)C(=O)C(C)C` [Ethyl 3-methyl-2-oxobutylate], “Trace”; with `CCOC(=O)CC(C)=O` [Ethyl 3-oxobutyrate], 25.5. The result for `CCOC(=O)CC(=O)CCl` [Ethyl 4-chloro-3-oxobutyrate] reads 212; that for `CCOC(=O)CC(=O)c1ccccc1` [Ethyl benzoylacetate], “Trace”. `CCOC(=O)CC(=O)c1cccnc1` [Ethyl nicotinoylacetate] registered a Relative activity of 20.7. Turning to `CCOC(=O)C(C)=O` [Ethyl pyruvate], the Relative activity result is recorded as “Trace”. On to `CC(=O)COc1ccccc1` [Phenoxyacetone], for which the Relative activity result is on record as “—”. Molecule `O=C(O)C(=O)Cc1ccccc1` [Phenylpyruvic acid] had a Relative activity of 12.2. With `CCC(=O)c1ccccc1` [Propiophenone] the entry was “Trace”; with `O=Cc1ccc(Cl)cc1` [p-chlorobenzaldehyde], 58.0. As to `O=Cc1ccc(O)cc1` [p-hydroxybenzaldehyde], the Relative activity entry is recorded as “—”.
